Assay [1] has as its target HSP90α (Homo sapiens (Human), UniProt P07900). Put plainly: Fluorescence polarization (FP) HSP90-alpha target binding assay. An excerpt:
In the present invention, the method of fluorescence polarization (FP) was used to establish the screening platform for HSP90-alpha inhibitors. The principle based on is to calculate fluorescence polarization values in horizontal and vertical directions by detecting molecular weight changes before and after interaction of fluorescent labeled small molecules with other molecules, in use for correlation analysis. If binding equilibria between the fluorescent labeled small molecule and the macromolecule is established, it moves slowly when excited, and the fluorescence polarization values measured will increase. If the fluorescent labeled small molecule binding to the macromolecule is replaced with other ligands, its rotational or inversional speed in free state will become faster, the emitted light would be depolarized with respect to the exciting light plane, and thus the polarized light value measured will decrease, so as to calculate the polarization value of the sample (the unit of polarization value is mP).
The fluorescent labeled small molecule used in the present invention was VER-00051001 (synthesized by reference to the synthetic method described in JMC, 2008, 51, 196-218). The reaction was carried out in a 384-well black plate, using the reaction hydrophobic protein HFB buffer: 100 mM Tris.Cl pH 7.4, 20 mM KCl, 6 mM MgCl2, 5 μg/mL BSA, 25 nM full-length Hsp90U, 10 nM VER-51001. The volume of the reaction system was […], containing 5 nM GM-BODIPY (geldanamycin), 30 nM HSP90 and the test small molecular compound or DMSO (dimethyl sulfoxide), wherein the DMSO content was 2% o. Additional two group wells were established, wherein the wells only added with HFB buffer were used as blank controls, and the wells further added with 5 nM GM-BODIPY were used as negative controls. The reaction was carried out at 4° C. for 12-16 hours. The mP value was measured by Biotek microplate reader at 485 nm of excitation wavelength and 535 nm of emission wavelength. The inhibition rate was calculated using the following equation: (Compound-free mP−Compound mP)/(Compound-free mP−negative control mP)×100%
On the technique in general: In fluorescence polarisation assays a small probe gives low polarisation when free and higher when bound to something large.

The subject of assay [2] is human lung cancer cell line A549. Put plainly: Tumor cell growth inhibition, SRB staining, A549. The assay is classed as cell-based. The following applies: A549, 72 h. As to the method: The growth inhibition assay of tumor cells was detected by sulforhodamine B (SRB) staining method. The specific steps were as follows: inoculating human colon cancer cell line HCT116 and human lung cancer cell line A549 (purchased from American Type Culture Collection, ATCC) at the logarithmic growth phase into a 96-well micro culture plate at an appropriate concentration of 4000 cells/well, 100 μL for each well; after culturing overnight, adding with the compound at different concentrations (100, 10, 1, 0.1, 0.01 μM) to react for 72 h, wherein triplicate wells were set up for each concentration, and solvent control wells with the corresponding concentration and zero wells without cells were also set up. After the completion of the reaction, the culture medium was removed from the adherent cells, the later was added with 10% (w/v) trichloroacetic acid (100 μL/well) at 4° C. to fix for 1 h, and then washed five times with distilled water. After drying at room temperature, 100 μL of SRB solution (4 mg/mL, dissolved in 1% glacial acetic acid) was added into each well, followed by incubation and staining for 15 min at room temperature. The uncombined SRB was removed by washing five times with 1% glacial acetic acid. After drying at room temperature, 100 μL of 10 mM Tris solution was added into each well, and the optical density (OD) at 515 nm was measured by a […] microplate reader. The inhibition rate of the drug to tumor cell growth was calculated according to the following equation: Inhibition rate (%)=(OD of control well-OD of drug well)/OD of control well×100%. The experiment was repeated twice.
On the technique in general: In SRB staining, fixed cells bind dye roughly in proportion to their protein.

The mark [3] stands for this setting: fluorescence polarization, read-out: Target binding ability HSP90α FP IC50.

Like-named read-outs stand apart in the source and are kept apart here.

A word on the IC50: it is the concentration that gives 50% inhibition. As usually defined, the EC50 is the concentration that produces a half-maximal response. A lower EC50 goes with an effect from little substance.

For `CCNC(=O)c1noc(-c2cc(C(C)C)c(O)cc2O)c1-c1ccc2c(c1)CCN(CCO)C2` [Example 44, 5-(2,4-dihydroxyl-5-isopropylphenyl)-N-ethyl-4-(2-(2-hydroxyethyl)-1,2,3,4-tetrahydroisoquinolin-6-yl)isoxazole-3-carboxamide], the IC50 in assay [1] (setting [3]) is under 20 nM. The EC50 in assay [2] is 20 to 100 nM.
As to `CCNC(=O)c1noc(-c2cc(C(C)C)c(O)cc2O)c1-c1ccc2c(c1)CCN(C(=O)CN(C)C)C2` [Example 59, 5-(2,4-dihydroxyl-5-isopropylphenyl)-4-(2-(2-(dimethylamino)acetyl)-1,2,3,4-tetrahydroisoquinolin-6-yl)-N-ethylisoxazole-3-carboxamide], in assay [1] (setting [3]), the IC50 lay in the range of 20 to 100 nM. The compound also gave an EC50 in assay [2] of over 100 nM.
On to `CCNC(=O)c1noc(-c2cc(Br)c(O)cc2O)c1-c1ccc2c(c1)CCN(C)C2` [Example 30, 5-(2,4-dihydroxyl-5-bromo-phenyl)-N-ethyl-4-(2-methyl-1,2,3,4-tetrahydroisoquinolin-6-yl)isoxazole-3-carboxamide], for which the IC50 in assay [1] (setting [3]) fell in the range of 20 to 100 nM. The EC50 in assay [2] was over 100 nM.
On to `CCCN1CCc2cc(-c3c(C(=O)NCC)noc3-c3cc(C(C)C)c(O)cc3O)ccc2C1` [Example 50, 5-(2,4-dihydroxyl-5-isopropylphenyl)-N-ethyl-4-(2-propyl-1,2,3,4-tetrahydroisoquinolin-6-yl)isoxazole-3-carboxamide], for which the IC50 in assay [1] (setting [3]) lay in the range of 20 to 100 nM. In assay [2], this compound had an EC50 of under 20 nM.
With `CCNC(=O)c1noc(-c2cc(C)c(O)cc2O)c1-c1ccc2c(c1)CCN(C)C2` [Example 32, 5-(2,4-dihydroxyl-5-methylphenyl)-N-ethyl-4-(2-methyl-1,2,3,4-tetrahydroisoquinolin-6-yl)isoxazole-3-carboxamide], in assay [1] (setting [3]), the IC50 was under 20 nM. The EC50 in assay [2] is over 100 nM.
For the compound `CC(C)c1cc(-c2noc(C(=O)NCCF)c2-c2ccc3c(c2)CCN(C)C3)c(O)cc1O` [Example 65, 3-(2,4-dihydroxyl-5-isopropylphenyl)-N-(2-fluoroethyl)-4-(2-methyl-1,2,3,4-tetrahydroisoquinolin-6-yl)isoxazole-5-carboxamide], the IC50 in assay [1] (setting [3]) is under 20 nM. The compound further gave an EC50 in assay [2] of under 20 nM.
For the compound `CCNC(=O)c1noc(-c2cc(C3CC3)c(O)cc2O)c1-c1ccc2c(c1)CCN(C)C2` [Example 35, 5-(5-cyclopropyl-2,4-dihydroxyl-phenyl)-N-ethyl-4-(2-methyl-1,2,3,4-tetrahydroisoquinolin-6-yl)isoxazole-3-carboxamide], in assay [1] (setting [3]), the IC50 is under 20 nM. Also, the EC50 in assay [2] fell in the range of 20 to 100 nM.
Turning to `CCNC(=O)c1noc(-c2cc(C(C)C)c(O)cc2O)c1-c1ccc2c(c1)CCN(CCCNC(C)=O)C2` [Example 54], the IC50 in assay [1] (setting [3]) lay within 20 to 100 nM. The same compound showed an EC50 in assay [2] of over 100 nM.
In the case of `CCNC(=O)c1noc(-c2cc(C(C)C)c(O)cc2O)c1-c1ccc2c(c1)CCN(CC(=O)N(C)C)C2` [Example 55, 5-(2,4-dihydroxyl-5-isopropylphenyl)-4-(2-(2-(dimethylamino)-2-oxoethyl)-1,2,3,4-tetrahydroisoquinolin-6-yl)-N-ethylisoxazole-3-carboxamide], in assay [1] (setting [3]), the IC50 lay within 20 to 100 nM. Moreover, the EC50 in assay [2] was over 100 nM.
As to `CCNC(=O)c1noc(-c2cc(C(C)C)c(O)cc2O)c1-c1ccc2c(c1)CCN(C(=O)CN1CCOCC1)C2` [Example 60, 5-(2,4-dihydroxyl-5-isopropylphenyl)-N-ethyl-4-(2-(2-morpholino-4-yl-acetyl)-1,2,3,4-tetrahydroisoquinolin-6-yl)isoxazole-3-carboxamide], the IC50 in assay [1] (setting [3]) was in the range of 20 to 100 nM. Moreover, in assay [2], the EC50 was over 100 nM.
On to `CCNC(=O)c1noc(-c2cc(C(C)C)c(O)cc2O)c1-c1ccc2c(c1)CCN(C)CC2` [Example 25, 5-(2,4-dihydroxyl-5-isopropylphenyl)-N-ethyl-4-(3-methyl-2,3,4,5-tetrahydro-1H-benzo[d]azepin-7-yl)isoxazole-3-carboxamide], for which the IC50 in assay [1] (setting [3]) was under 20 nM. Also, in assay [2], the EC50 was in the range of 20 to 100 nM.
In the case of `CCNC(=O)c1onc(-c2cc(C(C)C)c(O)cc2O)c1-c1ccc2c(c1)CCN(C(C)C)C2` [Example 68, 3-(2,4-dihydroxyl-5-isopropylphenyl)-N-ethyl-4-(2-isopropyl-1,2,3,4-tetrahydroisoquinolin-6-yl)isoxazole-5-carboxamide], the IC50 in assay [1] (setting [3]) was under 20 nM. Besides, the EC50 in assay [2] is under 20 nM.
Regarding `CC(C)c1cc(-c2noc(C(N)=O)c2-c2ccc3c(c2)CCN(C)C3)c(O)cc1O` [Example 61, 3-(2,4-dihydroxyl-5-isopropylphenyl)-4-(2-methyl-1,2,3,4-tetrahydroisoquinolin-6-yl)isoxazol-5-carboxamide], the IC50 in assay [1] (setting [3]) was under 20 nM. Further, the EC50 in assay [2] was under 20 nM.
With `CCNC(=O)c1noc(-c2cc(C(C)C)c(O)cc2O)c1-c1ccc2c(c1)C1CCC2N1C(C)C` (centres unmarked) [Example 7, 5-(2,4-dihydroxyl-5-isopropylphenyl)-N-ethyl-4-(9-isopropyl-1,2,3,4-tetrahydro-1,4-epiminonaphth-6-yl)isoxazole-3-carboxamide], in assay [1], the IC50 lay in the range of 20 to 100 nM. This compound also displayed an EC50 in assay [2] of under 20 nM.
With `CCNC(=O)c1noc(-c2cc(C(C)C)c(O)cc2O)c1-c1nc2c(n1C)CCN(CC(C)C)C2` [Example 24, 5-(2,4-dihydroxyl-5-isopropylphenyl)-N-ethyl-4-(5-isobutyl-1-methyl-4,5,6,7-tetrahydro-1H-imidazo[4,5-c]pyridin-2-yl)isoxazole-3-carboxamide], in assay [1] (setting [3]), the IC50 fell in the range of 20 to 100 nM. This compound had a concentration for a half-maximal effect (EC50) in assay [2] of 20 to 100 nM.
For `CC(C)c1cc(-c2onc(C(O)C(F)(F)F)c2-c2ccc3c(c2)CCN(C)C3)c(O)cc1O` (centres unmarked) [Example 20, 4-isopropyl-6-(4-(2-methyl-1,2,3,4-tetrahydroisoquinolin-6-yl)-3-(2,2,2-trifluoro-1-hydroxyethyl)isoxazol-5-yl)benzene-1,3-diol], in assay [1] (setting [3]), the IC50 was 20 to 100 nM. In assay [2], the EC50 is over 100 nM.
The matching figures for `CCNC(=O)c1onc(-c2cc(C(C)C)c(O)cc2O)c1-c1ccc2c(c1)CCN(CCOC)C2` [Example 70]: under 20 nM and 20 to 100 nM.
The corresponding values for `CCNC(=O)c1noc(-c2cc(C(C)C)c(O)cc2O)c1-c1ccc2c(c1)CCN(C(=O)CCN(C)C)C2` [Example 57, 5-(2,4-dihydroxyl-5-isopropylphenyl)-4-(2-(3-(dimethylamino)propionyl)-1,2,3,4-tetrahydroisoquinolin-6-yl)-N-ethylisoxazole-3-carboxamide] are 20 to 100 nM and over 100 nM.
For the compound `CCNC(=O)c1noc(-c2cc(C(C)C)c(O)cc2O)c1-c1cc2c(s1)CCN(C)C2` [Example 9, 5-(2,4-dihydroxyl-5-isopropylphenyl)-N-ethyl-4-(5-methyl-4,5,6,7-tetrahydrothieno[3,2-c]pyridin-2-yl)isoxazole-3-carboxamide], the IC50 in assay [1] (setting [3]) lay in the range of 20 to 100 nM. The compound further displayed an EC50 in assay [2] of 20 to 100 nM.
For `CCNC(=O)c1noc(-c2cc(CC(C)C)c(O)cc2O)c1-c1ccc2c(c1)CCN(C)C2` [Example 33, 5-(5-isobutyl-2,4-dihydroxyl-phenyl)-N-ethyl-4-(2-methyl-1,2,3,4-tetrahydroisoquinolin-6-yl)isoxazole-3-carboxamide], the IC50 in assay [1] (setting [3]) lay in the range of 20 to 100 nM. Further, in assay [2], the EC50 was over 100 nM.
The corresponding values for `CCNC(=O)c1noc(-c2cc(C(C)C)c(O)cc2O)c1-c1ccc2c(c1)CCN(CC(C)C)C2` [Example 52, 5-(2,4-dihydroxyl-5-isopropylphenyl)-N-ethyl-4-(2-isobutyl-1,2,3,4-tetrahydroisoquinolin-6-yl)isoxazole-3-carboxamide] are 20 to 100 nM and 20 to 100 nM.
Turning to `Cc1nnc(-c2noc(-c3cc(C(C)C)c(O)cc3O)c2-c2ccc3c(c2)CCN(C)C3)[nH]1` [Example 15, 4-isopropyl-6-[4-(2-methyl-1,2,3,4-tetrahydroisoquinolin-6-yl)-3-(5-methyl-4H-1,2,4-triazol-3-yl)isoxazol-5-yl]benzene-1,3-diol], the IC50 in assay [1] (setting [3]) lay in the range of 20 to 100 nM. The EC50 in assay [2] was over 100 nM.

(Values after patent US10035792B2, “Resorcinol derivative as HSP90 inhibitor” (priority 2015, dated 2018).)
